Reference: the NIST ThermoML archive (doi:10.1021/je800609u)

Tests used:
[1] = refractive index (Na D-line) (dimensionless); mn = molality of the nth substance listed, in mol/kg; settings: 101 kPa, Liquid
[2] = osmotic coefficient (dimensionless); mn = molality of the nth substance listed, in mol/kg; settings: Liquid, vapor pressure osmometery method

CCCCn1cc[n+](C)c1.[I-] [1-butyl-3-methylimidazolium iodide] + O
Settings | osmotic coefficient, 298.15 K | osmotic coefficient, 308.15 K | osmotic coefficient, 318.15 K | osmotic coefficient, 328.15 K | refractive index, 298.15 K | refractive index, 308.15 K | refractive index, 318.15 K | refractive index, 328.15 K
[1], m1 = 0.0133 | – | – | – | – | 1.3331 | 1.3321 | 1.3305 | 1.3285
[1], m1 = 0.0293 | – | – | – | – | 1.3336 | 1.3325 | 1.331 | 1.3289
[1], m1 = 0.0442 | – | – | – | – | 1.3343 | 1.333 | 1.3316 | 1.3293
[1], m1 = 0.0505 | – | – | – | – | 1.3346 | 1.3334 | 1.3317 | 1.3298
[1], m1 = 0.0786 | – | – | – | – | 1.3356 | 1.3344 | 1.3328 | 1.331
[1], m1 = 0.0995 | – | – | – | – | 1.3365 | 1.3353 | 1.3336 | 1.3315
[1], m1 = 0.1307 | – | – | – | – | 1.3376 | 1.3363 | 1.3347 | 1.3329
[1], m1 = 0.1782 | – | – | – | – | 1.3395 | 1.3381 | 1.3364 | 1.3347
[1], m1 = 0.216 | – | – | – | – | 1.341 | 1.3397 | 1.338 | 1.3359
[1], m1 = 0.3257 | – | – | – | – | 1.3449 | 1.3435 | 1.3418 | 1.3404
[1], m1 = 0.4065 | – | – | – | – | 1.3478 | 1.3467 | 1.3447 | 1.3433
[1], m1 = 0.5184 | – | – | – | – | 1.3519 | 1.3503 | 1.3487 | 1.3464
[1], m1 = 0.6452 | – | – | – | – | 1.356 | 1.3548 | 1.3529 | 1.3507
[1], m1 = 0.7509 | – | – | – | – | 1.3595 | 1.358 | 1.3561 | 1.3541
[1], m1 = 0.8786 | – | – | – | – | 1.3635 | 1.362 | 1.36 | 1.3578
[1], m1 = 1.154 | – | – | – | – | 1.3714 | 1.3701 | 1.368 | 1.3657
[1], m1 = 1.837 | – | – | – | – | 1.3893 | 1.3876 | 1.3853 | 1.3831
[1], m1 = 2.589 | – | – | – | – | 1.4054 | 1.4035 | 1.4012 | 1.3986
[2], m1 = 0.0133 | 0.833 | 0.856 | 0.899 | 0.91 | – | – | – | –
[2], m1 = 0.0293 | 0.821 | 0.843 | 0.888 | 0.889 | – | – | – | –
[2], m1 = 0.0442 | 0.792 | 0.821 | 0.88 | 0.885 | – | – | – | –
[2], m1 = 0.0505 | 0.784 | 0.814 | 0.869 | 0.878 | – | – | – | –
[2], m1 = 0.0786 | 0.766 | 0.788 | 0.845 | 0.861 | – | – | – | –
[2], m1 = 0.0995 | 0.761 | 0.78 | 0.819 | 0.833 | – | – | – | –
[2], m1 = 0.1307 | 0.751 | 0.765 | 0.782 | 0.807 | – | – | – | –
[2], m1 = 0.1782 | 0.711 | 0.734 | 0.758 | 0.778 | – | – | – | –
[2], m1 = 0.216 | 0.697 | 0.714 | 0.74 | 0.768 | – | – | – | –
[2], m1 = 0.3257 | 0.644 | 0.662 | 0.706 | 0.715 | – | – | – | –
[2], m1 = 0.4065 | 0.613 | 0.645 | 0.682 | 0.69 | – | – | – | –
[2], m1 = 0.5184 | 0.596 | 0.626 | 0.644 | 0.662 | – | – | – | –
[2], m1 = 0.6452 | 0.564 | 0.581 | 0.61 | 0.619 | – | – | – | –
[2], m1 = 0.7509 | 0.554 | 0.566 | 0.574 | 0.586 | – | – | – | –
[2], m1 = 0.8786 | 0.528 | 0.553 | 0.558 | 0.569 | – | – | – | –
[2], m1 = 1.154 | 0.47 | 0.501 | 0.521 | 0.528 | – | – | – | –
[2], m1 = 1.837 | 0.405 | 0.413 | 0.429 | 0.45 | – | – | – | –
[2], m1 = 2.589 | 0.362 | 0.38 | 0.387 | 0.408 | – | – | – | –
